Literature values, collected in patent publication US11208380B2, “Process for the purification of caprolactam from a solution of crude caprolactam without organic solvent extraction” (AquafilSLO d.o.o., priority 2017, dated 2021).

| Structure (SMILES) | LD50, rat, oral administration |
| --- | --- |
| ClC=C(Cl)Cl [Trichloroethylene] | 5400 mg/kg |
| c1ccccc1 [Benzene] | 930 mg/kg |
